Tests used:
[1] = molecular target: T1, 5-hydroxytryptamine 1A (5-HT1A) receptors (Homo sapiens (Human), UniProt P08908); experiment: 5-HT1A receptor Gαi1 BRET (G protein trimer dissociation); type: cell-based; conditions: relative to endogenous ligand 5-hydroxytryptamine
[2] = molecular target: T1, 5-hydroxytryptamine 1A (5-HT1A) receptors; experiment: 5-HT1A receptor β-arrestin2 BRET (recruitment); type: cell-based; conditions: relative to endogenous ligand 5-hydroxytryptamine
Method: At the same time, in order to examine the downstream β-arrestin2 signaling pathway mediated by 5-HT1A receptors, on the first day, a 6 cm culture dish was used for transfection with 500 ng of 5-HT1A receptors containing C-terminal seaweed luciferase (5HT1AR-Rluc), 500 ng of G protein-coupled receptor kinase 2 (GRK2), 2500 ng of β-arrestin2 containing N-terminal green fluorescent protein (GFP2-ARRB2), and 14 μL of PEI. The next day, the confluent cells of a 6 cm culture dish were digested and reseeded into a 96-well plate with 100 μL of culture medium added to each well. On the third day, the drugs were added for test. The 96-well plate was taken out from the cell incubator to decant the culture medium, 40 µL of the substrate coelenterazine 400a (final concentration of 5 μM) was added to each well, and then 20 μL of different drugs were added sequentially from left to right to ensure that the final concentration of the drug decreased gradually from bottom to top, with two replicates per treatment. Finally, the prepared samples were loaded on machine for test. The machine readout value reflected the recruitment of β-arrestin2 to the membrane or the dissociation of G protein trimer. The former indicated the degree of activation of the β-arrestin2 signaling pathway downstream of the 5-HT1 serotonin 1A receptors, and the latter indicated the degree of activation of the G protein signaling pathway downstream of the serotonin 1A receptors.

[3] = molecular target: T1, 5-hydroxytryptamine 1A (5-HT1A) receptors; experiment: 5-HT1A receptor radioligand competition binding assay ([3H]-LSD); conditions: 293T membranes, read-out: Affinity Ki
Method: The affinity of the compounds of the present disclosure for 5-hydroxytryptamine 1A (5-HT1A) receptors was determined by a radioligand competition binding assay.
In the first step, a cell membrane component containing specific 5-HT1A receptors was prepared. […] A vacuum pump was used to suck off the culture medium, 3 mL of lysis buffer was added to each culture dish, and the cells were placed in a 4° C. cold room for 10 minutes. After the cells were detached, the cells were transferred to a 15 mL centrifuge tube and centrifuged at 1500 rpm for 5 minutes at 4° C., and the supernatant was discarded. The cell pellet was transferred to a tissue homogenizer, and 3 mL of lysis buffer was added and fully ground until the cells were broken. Then, cell suspension was equally aliquoted into several EP tubes, centrifuged at 12000 rpm for 5 minutes at 4° C., and the supernatant was discarded. The precipitate was the cell membrane component containing the 5-HT1A receptors.
First, a standard binding buffer was added to the cell membrane component containing the 5-HT1A receptors, and the cell membrane was disrupted and resuspended with an electric tissue homogenizer. 30 μL of membrane protein suspension was added to each well of a 96-well plate. Then, 30 μL of different drugs were added to the 96-well plate sequentially from bottom to top to ensure that the final drug concentrations were 10^−5 M, 10^−6 M, 10^−7 M, 10^−8 M, 10^−9 M, and 0 M, with two replicates per treatment. Next, 30 μL of [^3H]-LSD was added to each well of the 96-well plate. The plate was incubated at room temperature in the dark for 2 hours. Detection was conducted. The machine readout value reflected the amount of [^3H]-LSD bound on the membrane, and after further data processing, the binding affinity Ki values of different compounds for the 5-HT1A receptors were obtained.

dopamine D2 receptors [4] = molecular target: T2, dopamine D2 receptors (Homo sapiens (Human), UniProt P14416); experiment: Dopamine D2 receptor radioligand competition binding assay ([3H]-Methylspiperone); conditions: [3H]-Methylspiperone 0.3 to 0.5 nM, 293T membranes; read-out: Affinity Ki
How it was run: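 Membranes from cells transfected with human D2 receptor, PEI-mediated; competition with [3H]-methylspiperone for 2 h at room temperature in the dark.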

dopamine D2 receptors [5] = molecular target: T2, dopamine D2 receptors; experiment: Dopamine D2 receptor Gαi1 BRET (G protein trimer dissociation); type: cell-based; conditions: for Emax: relative to endogenous ligand dopamine, read-out: Gαi1 BRET Emax % ± SEM; for EC50: unit printed only in Cariprazine cell, read-out: Gαi1 BRET EC50
How it was run: (§1)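 G-protein assay: cells co-transfected with D2 receptor, Gαi1-Rluc, Gβ3 and Gγ9-GFP (1 μg each); β-arrestin2 assay: D2-Rluc, GRK2 and GFP2-β-arrestin2 co-transfected. Cells were reseeded after one day and tested on day three. Drug dilution series were added in duplicate with coelenterazine 400a (5 μM final), and the BRET signal was read.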

dopamine D2 receptors [6] = molecular target: T2, dopamine D2 receptors; experiment: Dopamine D2 receptor β-arrestin2 BRET (recruitment); type: cell-based; conditions: for Emax: relative to endogenous ligand dopamine, read-out: β-arrestin2 BRET Emax % ± SEM; for EC50: unit printed only in Cariprazine cell, read-out: β-arrestin2 BRET EC50
How it was run: as §1

T2 sequence (P14416 whole entry): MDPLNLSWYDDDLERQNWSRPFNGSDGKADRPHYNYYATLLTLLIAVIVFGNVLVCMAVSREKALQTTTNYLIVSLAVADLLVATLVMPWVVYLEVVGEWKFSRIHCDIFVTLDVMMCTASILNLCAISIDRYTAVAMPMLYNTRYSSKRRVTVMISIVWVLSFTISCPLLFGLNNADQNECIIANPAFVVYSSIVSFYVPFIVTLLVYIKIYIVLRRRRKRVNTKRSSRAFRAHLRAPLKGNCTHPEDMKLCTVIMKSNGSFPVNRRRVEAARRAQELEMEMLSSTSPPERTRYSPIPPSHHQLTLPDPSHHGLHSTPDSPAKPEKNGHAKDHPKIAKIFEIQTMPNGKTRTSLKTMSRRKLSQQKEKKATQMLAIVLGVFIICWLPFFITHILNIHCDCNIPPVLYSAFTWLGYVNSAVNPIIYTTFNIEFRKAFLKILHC
T1 sequence (P08908 whole entry): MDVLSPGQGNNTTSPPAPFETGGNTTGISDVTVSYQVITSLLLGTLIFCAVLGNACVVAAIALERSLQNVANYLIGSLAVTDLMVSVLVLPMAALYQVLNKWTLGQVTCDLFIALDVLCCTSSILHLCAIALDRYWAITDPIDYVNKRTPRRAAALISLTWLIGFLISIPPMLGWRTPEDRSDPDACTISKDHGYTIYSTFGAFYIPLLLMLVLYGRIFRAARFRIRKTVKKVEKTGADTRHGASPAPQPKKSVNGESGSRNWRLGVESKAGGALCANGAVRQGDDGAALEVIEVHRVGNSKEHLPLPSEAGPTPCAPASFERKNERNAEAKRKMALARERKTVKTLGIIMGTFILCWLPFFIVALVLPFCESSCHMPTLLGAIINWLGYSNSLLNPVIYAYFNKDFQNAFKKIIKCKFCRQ

SMILES | Emax [1] [%] | Emax [2] [%] | Ki [3] [nM] | Ki (dopamine D2 receptors [4]) [nM] | Emax (dopamine D2 receptors [5]) [%] | EC50 (dopamine D2 receptors [5]) [nM] | Emax (dopamine D2 receptors [6]) [%] | EC50 (dopamine D2 receptors [6]) [nM]
COc1cccc2c3c(oc12)CN(CCNC(=O)C1CCC(F)(F)CC1)CC3 [I-A15, 4,4-difluoro-N-(2-(8-methoxy-3,4-dihydrobenzofuro[2,3-c]pyridin-2(1H)-yl)ethyl)cyclohexane-1-carboxamide] | 123 | 92 | 5.43 | 272 |  |  |  | 
COc1cccc2c3c(oc12)CN(CCCCn1ncc(=O)n(C)c1=O)CC3 [I-A22, 2-(4-(8-methoxy-3,4-dihydrobenzofuro[2,3-c]pyridin-2(1H)-yl)butyl)-4-methyl-1,2,4-triazine-3,5(2H,4H)-dione] | 59.5 | 49.6 | 0.073 |  | 79 | 56 | 89 | 86.4
CCOc1cccc2c3c(oc12)CN(CCNC(=O)C1CCCCCC1)CC3 [I-A32, N-(2-(8-ethoxy-3,4-dihydrobenzofuro[2,3-c]pyridin-2(1H)-yl)ethyl)cycloheptanecarboxamide] | 102 | 31.6 | 2.55 |  | 21 | 12.9 | 12 | 233

— US20250109139A1, “TRICYCLIC COMPOUND, AND PREPARATION METHOD THEREFOR AND USE THEREOF” (SHANGHAITECH UNIVERSITY, priority 2022, published 2025)
